# In US12478628B2, “Germ cell nuclear factor ligands and methods of use thereof” (Saint Louis University, priority 2020, dated 2025):
# What was measured:
# COUP-TF I LBD = target: T1, COUP-TF I LBD (Homo sapiens, UniProt P10589); assay: DSF specificity assay, COUP-TF I; type: binding
# T1 construct: human COUP-TF I LBD (residues 184-410); hexahistidine tag with 3C protease site; made in house; host or cells: E. coli BL(21) DE3
# T1 sequence (P10589 184-410): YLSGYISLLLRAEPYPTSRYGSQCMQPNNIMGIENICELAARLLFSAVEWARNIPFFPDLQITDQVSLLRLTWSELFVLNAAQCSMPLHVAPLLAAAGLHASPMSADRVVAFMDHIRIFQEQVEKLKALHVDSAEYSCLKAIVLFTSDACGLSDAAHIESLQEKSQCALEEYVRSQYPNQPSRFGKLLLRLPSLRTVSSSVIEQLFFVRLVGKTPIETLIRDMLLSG
# Description: Protein Expression and Purification. Human GCNF (NR6A1) LBD (residues 248-480) and mutants F284A/F361A, human LRH-1 (NR5A2) LBD (residues 291-541), human RXRα LBD (residues 223-462), human COUP-TF I LBD (residues 184-410) and human SF-1 LBD (residues 219-461) were subcloned in pET45b(+) plasmid (Novagen) were expressed in E. coli BL(21) DE3 cells in terrific broth with 0.1 mg/mL ampicillin as 3C protease-cleavable hexahistidine-tagged fusion proteins. The bacterial culture was grown at 37° C. to an optical density of 0.8 to 1.0 at 600 nm. Protein expression was induced by adding 1 mM IPTG and was allowed to proceed for 14 h at 22° C. […]
# DSF Assay. […] A total of 450 compounds (Life Chemicals) previously selected from a nuclear-receptor-biased library targeting REV-ERB were analyzed. Thermal stability was assessed on a Quantstudio 6 instrument (Biosystems) by ramping the temperature from 25° C. to 95° C. at 0.05° C./s and protein melt shifts were subsequently quantified by Boltzmann-derived melting temperature (Tm) using the Protein Thermal Shift (ThermoFisher) software. […]
# [1] = target: T2, chimeric Gal4-DBD human GCNF-LBD (Homo sapiens, UniProt Q15406); assay: Luciferase cotransfection reporter assay in HEK293 cells; type: cell-based; details: read-out: IC50, suppression of GCNF transactivation
# T2 construct: expressed in transfected cells; host or cells: HEK293
# T2 sequence (Q15406 249-480 limits assumed): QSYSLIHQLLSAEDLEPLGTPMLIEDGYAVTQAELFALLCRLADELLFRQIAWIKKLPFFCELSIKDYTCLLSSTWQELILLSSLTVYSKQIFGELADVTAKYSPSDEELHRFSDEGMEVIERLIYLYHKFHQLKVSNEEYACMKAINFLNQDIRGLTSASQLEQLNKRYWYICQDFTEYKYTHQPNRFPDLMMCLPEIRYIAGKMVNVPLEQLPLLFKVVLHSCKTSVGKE
# Description: Cell Culture, Cotransfection Assays, and QPCR Analysis. Cotransfection assays were performed in HEK293 cells as previously described (Griffett et al., 2013; Wu et al., 2003; Savkur et al., 2003). Briefly, for dose-response cotransfection assays, a chimeric Gal4-DBD human GCNF-LBD in the pBIND vector was cotransfected with pGL4.35[luc2P/9XGAL4UAS/Hygro] vector (Promega). All cotransfections were normalized to renilla (pGL4.73; Dual-Glo luciferase reagent; Promega) and subsequently DMSO for analysis.
# [2] = system: i3 neurons differentiated from iPSCs; assay: qPCR of pluripotency and neuronal markers after iPSC differentiation; type: cell-based; details: qPCR upon ligand treatment
# Description: qPCR using iPSC samples and differentiated neurons samples to make sure the primers worked. These primers include: • Housekeeping genes for normalization: CYCLO, 36B4, GAPDH • Stem cell markers: OCT4, SOX2, NANOG, REX1 • Neuronal markers: MAP2, MAPT, TUBB3, NCAM1
# iPSC Differentiation to Neurons. For growing neurons from iPSC cells, the method described by Femandopulle were employed (Femandopulle et al., 2018). Briefly, cells were treated with doxycycline to turn on expression of Neurogenin-2 (NGN2), which irreversibly sets these cells on the path of neuronal differentiation. The cells were treated with doxycycline for 3 days (changing media every day), and then re-plate the cells onto new plates coated with PLO. For each time point, 21 samples were prepared (DMSO and ligands 34 and 80 at different concentrations, in triplicate).
# An overview of the experiment timeline is shown as well: • Day 0: Plate iPSC on matrigel-coated 12-well plates • Day 2: Treat cells −/+ ligands in iPSC media • Day 3: Refeed cells induction media +Doxycycline −/+ ligands to start neuronal differentiation (Day 0 of differentiation) • Day 4: Refeed cells induction media +Doxycycline −/+ ligands (Day 1 of differentiation) • Day 5: Refeed cells induction media +Doxycycline −/+ ligands (Day 2 of differentiation) • Day 6: Take pictures; Refeed cells neuronal media −/+ ligands (Day 3 of differentiation) • Day 7: Collect cells for RNA/qPCR (Day 4 of differentiation)
Structure (SMILES),change of Tm of COUP-TF I LBD (COUP-TF I LBD),IC50 [1] [nM],expression of pluripotency marker Sox2 [2],expression of neuronal marker MAPT [2]
"Cc1ccc(-n2ncc3c(N4CCOCC4)nc(NCc4ccco4)nc32)cc1 [Ligand 34, N-[(furan-2-yl)methyl]-1-(4-methylphenyl)-4-(morpholin-4-yl)-1H-pyrazolo[3,4-d]pyrimidin-6-amine]",did not significantly change,1100,substantially decreased,
"O=C(Cn1cc(S(=O)(=O)c2ccccc2)c2ccccc21)N1CCc2ccccc21 [Ligand 80, 2-[3-(benzenesulfonyl)-1H-indol-1-yl]-1-(2,3-dihydro-1H-indol-1-yl)ethan-1-one]",did not significantly change,317,substantially decreased,substantially increased
